For eight compounds, inhibition results are on record in patent US20230072683A1, “PYRIDO-PYRIMIDIN DERIVATIVES AND PHARMACEUTICAL COMPOSITION, FOR USE IN PREVENTING OR TREATING PI3 KINASE RELATED DISEASES, COMPRISING SAME AS ACTIVE INGREDIENT” (BORYUNG PHARMACEUTICAL CO., LTD, priority 2019, published 2023).

The target of one assay is DNA-PK(h) (Homo sapiens, UniProt P78527). Description: Evaluation of inhibitory activity against DNA-PK (HTRF kinase assay, GST-cMyc-p53 substrate). Particulars: for inhibition at 0.01 µM: compound concentration 0.01 μM, read-out: EXP_VALUE(% Inhibition) DNA-PK(h) 0.01 μM; for inhibition at 0.1 µM: compound concentration 0.1 μM, read-out: EXP_VALUE(% Inhibition) DNA-PK(h) 0.1 μM. The class given is biochemical. Summed up: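 Human DNA-PK with 50 μM GST-cMyc-p53 substrate; reaction started with Mg/ATP, run 30 min at room temperature, stopped with EDTA. Phospho-Ser15 p53 detected by HTRF (Eu anti-phospho-Ser15, d2 anti-GST), signal = 10000×(Em 665/Em 620).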
(TR-FRET usually uses a lanthanide donor and a delayed reading to cut background.)

The target in assay [1] is PI3K-δ (PI3K(p1108/p857) (h)) (Homo sapiens, UniProt O00329). Description: Evaluation of inhibitory activity against PI3K-δ (HTRF kinase assay). It counts as biochemical. Particulars: for inhibition at 0.01 µM: compound concentration 0.01 μM, read-out: EXP_VALUE(% Inhibition) PI3K-δ 0.01 μM; for inhibition at 0.1 µM: compound concentration 0.1 μM, read-out: EXP_VALUE(% Inhibition) PI3K-δ 0.1 μM. The gist of the method:
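HTRF read-out (665/620 nm ratio ×10000) used Eu-labelled anti-GST, GST-tagged GRP1 PH domain and streptavidin-allophycocyanin after EDTA/PIP3 stop.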

PI3K-δ (PI3K(p1108/p857) (h)), sequence (O00329 whole entry, the tested form may be a part): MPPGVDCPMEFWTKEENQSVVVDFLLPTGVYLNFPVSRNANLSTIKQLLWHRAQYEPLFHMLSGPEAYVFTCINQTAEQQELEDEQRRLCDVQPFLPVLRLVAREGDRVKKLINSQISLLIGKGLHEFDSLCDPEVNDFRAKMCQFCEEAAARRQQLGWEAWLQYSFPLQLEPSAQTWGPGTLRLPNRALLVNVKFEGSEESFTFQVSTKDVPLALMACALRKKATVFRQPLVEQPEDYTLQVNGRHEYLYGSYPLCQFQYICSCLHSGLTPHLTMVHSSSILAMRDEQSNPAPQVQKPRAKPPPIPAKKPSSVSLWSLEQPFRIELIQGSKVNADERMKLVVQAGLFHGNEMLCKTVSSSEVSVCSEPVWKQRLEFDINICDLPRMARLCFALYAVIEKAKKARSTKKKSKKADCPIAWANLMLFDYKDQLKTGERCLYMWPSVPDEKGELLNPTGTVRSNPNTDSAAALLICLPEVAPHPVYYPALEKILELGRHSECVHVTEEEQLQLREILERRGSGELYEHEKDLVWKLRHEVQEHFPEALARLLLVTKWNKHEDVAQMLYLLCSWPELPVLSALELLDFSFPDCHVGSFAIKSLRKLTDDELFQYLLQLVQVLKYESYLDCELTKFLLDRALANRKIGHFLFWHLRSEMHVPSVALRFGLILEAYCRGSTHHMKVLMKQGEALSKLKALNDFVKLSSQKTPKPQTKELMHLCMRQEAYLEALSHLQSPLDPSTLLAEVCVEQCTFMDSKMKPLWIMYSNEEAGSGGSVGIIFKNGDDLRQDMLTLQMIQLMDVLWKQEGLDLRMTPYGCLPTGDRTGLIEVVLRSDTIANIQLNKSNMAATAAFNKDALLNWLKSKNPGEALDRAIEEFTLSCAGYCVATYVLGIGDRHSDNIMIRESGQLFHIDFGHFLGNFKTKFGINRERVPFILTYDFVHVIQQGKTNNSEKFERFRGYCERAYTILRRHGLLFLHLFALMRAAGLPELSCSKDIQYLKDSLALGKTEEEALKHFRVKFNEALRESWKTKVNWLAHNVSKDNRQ
PI3K-δ (PI3K(p1108/p857) (h)), sequence (P27986 whole entry partner, the tested form may be a part): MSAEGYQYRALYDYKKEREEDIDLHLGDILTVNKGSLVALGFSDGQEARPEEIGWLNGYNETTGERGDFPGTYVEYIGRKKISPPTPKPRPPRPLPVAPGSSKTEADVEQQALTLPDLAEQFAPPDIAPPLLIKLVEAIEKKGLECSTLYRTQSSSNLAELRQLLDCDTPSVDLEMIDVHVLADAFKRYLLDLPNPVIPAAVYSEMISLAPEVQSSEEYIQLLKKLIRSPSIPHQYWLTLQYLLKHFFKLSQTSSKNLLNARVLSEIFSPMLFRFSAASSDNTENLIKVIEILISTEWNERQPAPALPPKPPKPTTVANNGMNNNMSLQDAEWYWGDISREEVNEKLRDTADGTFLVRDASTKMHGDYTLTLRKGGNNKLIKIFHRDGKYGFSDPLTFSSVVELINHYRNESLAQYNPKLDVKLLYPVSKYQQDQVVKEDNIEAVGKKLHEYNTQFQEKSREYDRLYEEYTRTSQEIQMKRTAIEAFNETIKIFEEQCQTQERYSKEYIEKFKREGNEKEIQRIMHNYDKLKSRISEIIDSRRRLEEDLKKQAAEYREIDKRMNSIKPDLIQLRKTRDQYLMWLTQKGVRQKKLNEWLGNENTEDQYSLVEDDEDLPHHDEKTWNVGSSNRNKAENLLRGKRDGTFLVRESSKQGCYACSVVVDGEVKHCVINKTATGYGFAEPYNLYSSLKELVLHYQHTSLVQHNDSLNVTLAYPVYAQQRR

Usually inhibition stands for the relative decrease from the control value, in per cent. For `C[C@H](Nc1ncnc2[nH]ccc(=O)c12)c1c(Cl)c2cccc(-c3ccc4c(c3)OCCN4)c2c(=O)n1-c1ccccc1` [Example 120, (S)-4-((1-(4-chloro-8-(3,4-dihydro-2H-benzo[b][1,4]oxazin-7-yl)-1-oxo-2-phenyl-1,2-dihydroisoquinolin-3-yl)ethyl)amino)pyrido[2,3-d]pyrimidin-5(8H)-one], on DNA-PK(h), the inhibition at 0.01 µM came to 72% and the inhibition at 0.1 µM was 98%. Besides, in assay [1], the inhibition at 0.01 µM stood at 65% and the inhibition at 0.1 µM stood at 95%.

`C[C@H](Nc1ncnc2[nH]ccc(=O)c12)c1c(Cl)c2cccc(-c3cnc4nncn4c3)c2c(=O)n1-c1ccccc1` [Example 40, (S)-4-((1-(8-([1,2,4]triazolo[4,3-a]pyrimidin-6-yl)-4-chloro-1-oxo-2-phenyl-1,2-dihydroisoquinolin-3-yl)ethyl)amino)pyrido[2,3-d]pyrimidin-5(8H)-one]: the inhibition at 0.01 µM came out at 61% on DNA-PK(h) and 67% in assay [1].

With `C[C@H](Nc1ncnc2[nH]ccc(=O)c12)c1c(Cl)c2cccc(-c3ccc4[nH]ncc4c3)c2c(=O)n1-c1ccccc1` [Example 236, (S)-4-((1-(4-chloro-8-(1H-indazol-5-yl)-1-oxo-2-phenyl-1,2-dihydroisoquinolin-3-yl)ethyl)amino)pyrido[2,3-d]pyrimidin-5(8H)-one], the inhibition at 0.01 µM at DNA-PK(h) is 46%; in assay [1], 79%.

For the compound `CCOc1cnc(-c2cccc3c(Cl)c([C@H](C)Nc4ncnc5[nH]ccc(=O)c45)n(-c4ccccc4)c(=O)c23)cn1` [Example 230, (S)-4-((1-(4-chloro-8-(5-ethoxypyrazin-2-yl)-1-oxo-2-phenyl-1,2-dihydroisoquinolin-3-yl)ethyl)amino)pyrido[2,3-d]pyrimidin-5(8H)-one], the results for the inhibition at 0.01 µM (on DNA-PK(h); in assay [1]) were 41% and 76%, respectively.

Regarding `C[C@H](Nc1ncnc2[nH]ccc(=O)c12)c1c(Cl)c2cccc(-c3cnc(N4CCCC4)nc3)c2c(=O)n1-c1ccccc1` [Example 222, (S)-4-((1-(4-chloro-1-oxo-2-phenyl-8-(2-(pyrrolidin-1-yl)pyrimidin-5-yl)-1,2-dihydroisoquinolin-3-yl)ethyl)amino)pyrido[2,3-d]pyrimidin-5(8H)-one], the inhibition at 0.01 µM on DNA-PK(h) amounted to 55%; in assay [1], 75%.

With `Cc1ccc(-c2cccc3c(Br)c([C@H](C)Nc4ncnc5[nH]ccc(=O)c45)n(-c4ccccc4)c(=O)c23)cn1` [Example 17, (S)-4-((1-(4-bromo-8-(6-methylpyridin-3-yl)-1-oxo-2-phenyl-1,2-dihydroisoquinolin-3-yl)ethyl)amino)pyrido[2,3-d]pyrimidin-5(8H)-one], at DNA-PK(h), the inhibition at 0.01 µM was 70% and the inhibition at 0.1 µM was determined as 94%. Further, in assay [1], the inhibition at 0.01 µM is 99% and the inhibition at 0.1 µM is 97%.

Regarding `C[C@H](Nc1ncnc2[nH]ccc(=O)c12)c1cc2cccc(C#N)c2c(=O)n1-c1ccccc1` [Example 266, (S)-1-oxo-3-(1-((5-oxo-5,8-dihydropyrido[2,3-d]pyrimidin-4-yl)amino)ethyl)-2-phenyl-1,2-dihydroisoquinoline-8-carbonitrile], at DNA-PK(h), the inhibition at 0.01 µM is -10% and the inhibition at 0.1 µM came out at 3%. In addition, in assay [1], the inhibition at 0.01 µM amounted to 69% and the inhibition at 0.1 µM was 88%.

As for `C[C@H](Nc1ncnc2[nH]ccc(=O)c12)c1c(Cl)c2cccc(-c3cnc(N4CCOCC4)cn3)c2c(=O)n1-c1ccccc1` [Example 207, (S)-4-((1-(4-chloro-8-(5-morpholinopyrazin-2-yl)-1-oxo-2-phenyl-1,2-dihydroisoquinolin-3-yl)ethyl)amino)pyrido[2,3-d]pyrimidin-5(8H)-one], the results for the inhibition at 0.01 µM (on DNA-PK(h); in assay [1]) were 52% and 57%, respectively.
